Measurements from the kinase profiling compilation of Christmann-Franck et al. (2016).

Tests used:
Experiment in all cases: radiometric filter-binding kinase assay, Kinase HotSpot
Settings in all cases: compound 0.5 µM; ATP 10 µM
[1] = target: PAK3 (human) (UniProt O75914)
[2] = target: CAMKK1 (human) (UniProt Q8N5S9)
[3] = target: PRKCD (human) (UniProt Q05655)
[4] = target: RPS6KA3 KD1 KD2 (human) (UniProt P51812)
[5] = target: ACVR1B (human) (UniProt P36896)
[6] = target: PIM2 (human) (UniProt Q9P1W9)
[7] = target: FGFR3 (human) (UniProt P22607)
[8] = target: DAPK3 (human) (UniProt O43293)
[9] = target: NTRK1 (human) (UniProt P04629)
[10] = target: CDC42BPA (human) (UniProt Q5VT25)
[11] = target: YES1 (human) (UniProt P07947)
[12] = target: CHEK2 (human) (UniProt O96017)
[13] = target: PIM1 (human) (UniProt P11309)
[14] = target: MET (human) (UniProt P08581)
[15] = target: TNK2 (human) (UniProt Q07912)
[16] = target: AKT3 (human) (UniProt Q9Y243)
[17] = target: MAPK10 (human) (UniProt P53779)
[18] = target: VRK1 (human) (UniProt Q99986)
[19] = target: MAPK11 (human) (UniProt Q15759)
[20] = target: BTK (human) (UniProt Q06187)
[21] = target: STK25 (human) (UniProt O00506)
[22] = target: MAP3K14 (human) (UniProt Q99558)
[23] = target: ITK (human) (UniProt Q08881)
[24] = target: EPHA5 (human) (UniProt P54756)
[25] = target: CSNK1G1 (human) (UniProt Q9HCP0)
[26] = target: RPS6KB1 (human) (UniProt P23443)
[27] = target: MAP3K5 (human) (UniProt Q99683)
[28] = target: CDK1 CCNB1 (human) (UniProt P06493+P14635)
[29] = target: PRKCB1 (human) (UniProt P05771)
[30] = target: DSTYK (human) (UniProt Q6XUX3)
[31] = target: PRKD3 (human) (UniProt O94806)
[32] = target: EPHA2 (human) (UniProt P29317)
[33] = target: RPS6KA4 KD2 (human) (UniProt O75676)
[34] = target: CAMK2G (human) (UniProt Q13555)
[35] = target: MAP3K7 TAB1 (human) (UniProt O43318+Q15750)
[36] = target: DYRK1B (human) (UniProt Q9Y463)
[37] = target: MAP3K2 (human) (UniProt Q9Y2U5)
[38] = target: ADRBK2 (human) (UniProt P35626)
[39] = target: TXK (human) (UniProt P42681)
[40] = target: PTK2B (human) (UniProt Q14289)
[41] = target: HIPK3 (human) (UniProt Q9H422)
[42] = target: MAP4K4 (human) (UniProt O95819)

Chain of MET (human) (P08581 whole entry, looked up): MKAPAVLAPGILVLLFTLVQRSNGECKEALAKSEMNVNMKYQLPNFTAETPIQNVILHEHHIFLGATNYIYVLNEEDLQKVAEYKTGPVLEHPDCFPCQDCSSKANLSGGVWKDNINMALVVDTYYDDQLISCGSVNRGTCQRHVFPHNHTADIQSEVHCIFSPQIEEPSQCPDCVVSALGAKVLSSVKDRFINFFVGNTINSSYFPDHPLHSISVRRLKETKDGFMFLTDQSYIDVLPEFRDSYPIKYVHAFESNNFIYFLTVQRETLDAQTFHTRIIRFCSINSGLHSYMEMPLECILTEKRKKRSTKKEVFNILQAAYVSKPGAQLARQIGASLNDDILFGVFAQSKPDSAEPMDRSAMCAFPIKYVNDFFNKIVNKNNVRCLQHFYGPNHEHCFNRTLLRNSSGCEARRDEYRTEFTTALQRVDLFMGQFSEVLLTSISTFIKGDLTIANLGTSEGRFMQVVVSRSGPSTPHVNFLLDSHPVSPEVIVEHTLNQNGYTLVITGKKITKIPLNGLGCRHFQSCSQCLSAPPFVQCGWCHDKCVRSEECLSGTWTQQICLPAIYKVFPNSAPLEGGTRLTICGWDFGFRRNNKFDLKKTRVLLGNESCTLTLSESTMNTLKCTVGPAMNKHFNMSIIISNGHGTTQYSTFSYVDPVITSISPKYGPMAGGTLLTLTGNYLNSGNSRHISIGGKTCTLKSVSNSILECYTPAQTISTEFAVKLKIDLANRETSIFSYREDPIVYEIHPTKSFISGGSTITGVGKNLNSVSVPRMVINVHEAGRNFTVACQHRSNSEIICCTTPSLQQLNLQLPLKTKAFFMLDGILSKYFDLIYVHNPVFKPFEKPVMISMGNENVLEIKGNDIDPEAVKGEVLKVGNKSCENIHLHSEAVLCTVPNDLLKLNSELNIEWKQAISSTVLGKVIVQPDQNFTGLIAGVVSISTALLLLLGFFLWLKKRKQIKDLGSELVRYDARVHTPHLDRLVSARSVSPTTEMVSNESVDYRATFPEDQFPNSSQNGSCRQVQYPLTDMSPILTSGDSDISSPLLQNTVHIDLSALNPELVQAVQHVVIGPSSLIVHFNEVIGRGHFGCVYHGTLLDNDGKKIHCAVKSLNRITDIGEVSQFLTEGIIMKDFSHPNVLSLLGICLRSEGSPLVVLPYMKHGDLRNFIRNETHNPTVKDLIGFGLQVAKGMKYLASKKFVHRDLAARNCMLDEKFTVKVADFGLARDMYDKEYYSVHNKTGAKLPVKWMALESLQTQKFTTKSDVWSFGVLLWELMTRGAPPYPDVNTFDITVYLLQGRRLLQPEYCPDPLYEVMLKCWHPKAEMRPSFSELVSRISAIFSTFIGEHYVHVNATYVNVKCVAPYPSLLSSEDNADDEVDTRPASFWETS
Chain of PRKCD (human) (Q05655 whole entry, looked up): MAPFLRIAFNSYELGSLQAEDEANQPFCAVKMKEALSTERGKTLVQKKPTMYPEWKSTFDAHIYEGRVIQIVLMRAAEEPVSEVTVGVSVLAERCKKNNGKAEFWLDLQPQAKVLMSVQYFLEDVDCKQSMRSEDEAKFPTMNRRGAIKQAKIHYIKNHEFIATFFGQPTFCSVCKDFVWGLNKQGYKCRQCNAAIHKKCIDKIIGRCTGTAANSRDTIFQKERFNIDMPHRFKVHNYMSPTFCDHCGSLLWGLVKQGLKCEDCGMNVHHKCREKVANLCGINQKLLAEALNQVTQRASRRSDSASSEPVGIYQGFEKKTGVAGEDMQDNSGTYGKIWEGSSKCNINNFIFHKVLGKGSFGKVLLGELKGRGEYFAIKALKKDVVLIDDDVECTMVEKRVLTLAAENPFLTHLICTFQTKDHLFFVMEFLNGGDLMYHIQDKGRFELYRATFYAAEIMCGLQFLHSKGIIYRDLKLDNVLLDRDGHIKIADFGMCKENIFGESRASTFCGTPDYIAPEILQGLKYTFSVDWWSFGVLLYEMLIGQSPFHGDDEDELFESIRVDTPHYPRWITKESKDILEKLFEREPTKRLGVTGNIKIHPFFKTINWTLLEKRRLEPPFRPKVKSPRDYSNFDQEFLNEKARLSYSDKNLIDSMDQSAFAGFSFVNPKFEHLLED
Chain of HIPK3 (human) (Q9H422 whole entry, looked up): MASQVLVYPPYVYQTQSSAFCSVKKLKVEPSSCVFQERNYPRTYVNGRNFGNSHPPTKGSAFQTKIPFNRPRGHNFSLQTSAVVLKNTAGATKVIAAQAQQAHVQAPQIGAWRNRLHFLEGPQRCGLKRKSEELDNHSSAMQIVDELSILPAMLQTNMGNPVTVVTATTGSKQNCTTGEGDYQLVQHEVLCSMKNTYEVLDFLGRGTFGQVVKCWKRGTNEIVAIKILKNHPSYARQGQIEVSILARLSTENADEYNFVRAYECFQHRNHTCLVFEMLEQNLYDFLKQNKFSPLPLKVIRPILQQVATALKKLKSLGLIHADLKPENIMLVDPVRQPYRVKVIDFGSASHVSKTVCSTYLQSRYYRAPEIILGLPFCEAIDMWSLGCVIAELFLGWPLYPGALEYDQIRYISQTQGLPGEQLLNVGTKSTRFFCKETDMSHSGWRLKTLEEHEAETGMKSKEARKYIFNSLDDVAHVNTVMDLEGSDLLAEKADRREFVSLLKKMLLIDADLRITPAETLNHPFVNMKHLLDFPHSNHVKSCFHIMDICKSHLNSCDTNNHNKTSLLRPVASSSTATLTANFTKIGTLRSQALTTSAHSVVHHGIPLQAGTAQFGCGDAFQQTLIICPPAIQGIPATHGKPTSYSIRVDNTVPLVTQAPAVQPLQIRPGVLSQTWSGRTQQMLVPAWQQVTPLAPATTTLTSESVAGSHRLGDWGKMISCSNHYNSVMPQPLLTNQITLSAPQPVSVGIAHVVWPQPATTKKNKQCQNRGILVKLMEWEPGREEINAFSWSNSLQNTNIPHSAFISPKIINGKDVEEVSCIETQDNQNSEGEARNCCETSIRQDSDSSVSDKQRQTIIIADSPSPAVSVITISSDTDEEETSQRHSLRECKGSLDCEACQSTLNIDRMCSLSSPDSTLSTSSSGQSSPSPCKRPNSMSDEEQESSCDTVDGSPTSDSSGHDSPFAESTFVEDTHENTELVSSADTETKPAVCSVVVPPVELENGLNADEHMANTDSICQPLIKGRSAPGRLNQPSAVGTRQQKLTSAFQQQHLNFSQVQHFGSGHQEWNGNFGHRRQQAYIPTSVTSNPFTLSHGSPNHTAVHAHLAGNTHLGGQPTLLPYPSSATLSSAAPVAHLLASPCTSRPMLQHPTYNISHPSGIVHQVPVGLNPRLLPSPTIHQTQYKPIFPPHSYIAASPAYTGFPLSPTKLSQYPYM
Chain of PRKCB1 (human) (P05771 whole entry, looked up): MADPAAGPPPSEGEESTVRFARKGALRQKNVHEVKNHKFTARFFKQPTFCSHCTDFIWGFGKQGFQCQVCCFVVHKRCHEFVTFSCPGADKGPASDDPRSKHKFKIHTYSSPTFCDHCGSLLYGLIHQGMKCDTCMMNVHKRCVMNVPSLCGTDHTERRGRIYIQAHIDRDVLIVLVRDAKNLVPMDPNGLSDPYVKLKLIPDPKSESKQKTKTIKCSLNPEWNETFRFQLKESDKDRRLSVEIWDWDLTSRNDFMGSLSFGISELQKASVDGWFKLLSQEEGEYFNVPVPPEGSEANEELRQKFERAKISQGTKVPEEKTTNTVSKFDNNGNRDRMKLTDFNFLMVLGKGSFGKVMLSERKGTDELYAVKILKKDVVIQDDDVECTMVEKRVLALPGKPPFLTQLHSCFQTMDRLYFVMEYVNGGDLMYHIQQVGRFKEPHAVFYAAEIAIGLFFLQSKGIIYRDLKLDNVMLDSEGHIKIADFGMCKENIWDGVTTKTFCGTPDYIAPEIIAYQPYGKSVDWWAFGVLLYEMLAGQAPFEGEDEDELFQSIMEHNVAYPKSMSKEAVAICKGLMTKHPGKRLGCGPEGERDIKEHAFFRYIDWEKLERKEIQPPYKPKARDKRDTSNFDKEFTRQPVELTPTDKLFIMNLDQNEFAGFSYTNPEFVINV
Chain of MAPK11 (human) (Q15759 whole entry, looked up): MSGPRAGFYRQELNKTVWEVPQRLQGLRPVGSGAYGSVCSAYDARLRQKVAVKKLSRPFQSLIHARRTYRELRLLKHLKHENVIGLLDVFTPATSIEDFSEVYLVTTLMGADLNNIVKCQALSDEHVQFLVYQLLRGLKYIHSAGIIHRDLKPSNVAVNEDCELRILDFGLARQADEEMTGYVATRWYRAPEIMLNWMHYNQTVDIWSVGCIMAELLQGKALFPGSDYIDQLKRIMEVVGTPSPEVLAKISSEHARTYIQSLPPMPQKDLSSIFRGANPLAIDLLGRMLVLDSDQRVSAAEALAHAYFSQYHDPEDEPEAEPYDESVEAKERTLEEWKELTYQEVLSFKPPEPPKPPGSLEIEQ
Chain of MAP3K2 (human) (Q9Y2U5 whole entry, looked up): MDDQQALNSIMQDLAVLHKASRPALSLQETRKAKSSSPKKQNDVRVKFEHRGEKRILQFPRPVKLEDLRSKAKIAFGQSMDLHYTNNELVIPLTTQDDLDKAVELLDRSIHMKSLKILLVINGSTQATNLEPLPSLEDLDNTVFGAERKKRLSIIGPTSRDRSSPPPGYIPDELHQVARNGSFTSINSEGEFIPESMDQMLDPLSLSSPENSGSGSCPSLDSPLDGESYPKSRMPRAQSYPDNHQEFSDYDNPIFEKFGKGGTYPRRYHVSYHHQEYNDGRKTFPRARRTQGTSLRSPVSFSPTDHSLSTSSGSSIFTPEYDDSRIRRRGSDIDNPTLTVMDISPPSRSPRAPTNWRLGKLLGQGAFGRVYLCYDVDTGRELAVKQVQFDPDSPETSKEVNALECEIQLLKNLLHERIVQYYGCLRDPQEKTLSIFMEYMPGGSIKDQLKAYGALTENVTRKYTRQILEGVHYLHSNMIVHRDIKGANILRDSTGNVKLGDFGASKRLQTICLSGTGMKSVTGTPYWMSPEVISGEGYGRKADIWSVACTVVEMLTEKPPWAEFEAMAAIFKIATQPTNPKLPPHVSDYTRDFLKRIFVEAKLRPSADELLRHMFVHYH

Q: Which residual activity [1] does the source give for `CCCNC(=O)Nc1ccc(Oc2ncnc3cc(OC)c(OC)cc23)cc1Cl` here?
A: 94.7%

Q: And the residual activity [2]?
A: 93.1%

Q: What about the residual activity [3] of the same molecule?
A: 90.1%

Q: What about the residual activity [4] of the same molecule?
A: 94.9%

Q: And the residual activity [5]?
A: 99.6%

Q: And the residual activity [6]?
A: 101%

Q: What about the residual activity [7] of the same molecule?
A: 84.5%

Q: What about the residual activity [8] of the same molecule?
A: 88.8%

Q: What about the residual activity [9] of the same molecule?
A: 93.2%

Q: What about the residual activity [10] of the same molecule?
A: 77.8%

Q: And the residual activity [11]?
A: 82.1%

Q: And the residual activity [12]?
A: 80%

Q: And the residual activity [13]?
A: 102%

Q: What about the residual activity [14] of the same molecule?
A: 73.6%

Q: What about the residual activity [15] of the same molecule?
A: 96.5%

Q: And the residual activity [16]?
A: 88.9%

Q: And the residual activity [17]?
A: 100%

Q: And the residual activity [18]?
A: 104%

Q: What about the residual activity [19] of the same molecule?
A: 88.5%

Q: What about the residual activity [20] of the same molecule?
A: 98.6%

Q: What about the residual activity [21] of the same molecule?
A: 92.6%

Q: What about the residual activity [22] of the same molecule?
A: 109%

Q: What about the residual activity [23] of the same molecule?
A: 96.9%

Q: And the residual activity [24]?
A: 81.8%

Q: What about the residual activity [25] of the same molecule?
A: 97.1%

Q: What about the residual activity [26] of the same molecule?
A: 90.6%

Q: What about the residual activity [27] of the same molecule?
A: 102%

Q: What about the residual activity [28] of the same molecule?
A: 98%

Q: And the residual activity [29]?
A: 100%

Q: And the residual activity [30]?
A: 88.6%

Q: What about the residual activity [31] of the same molecule?
A: 93.4%

Q: What about the residual activity [32] of the same molecule?
A: 104%

Q: And the residual activity [33]?
A: 98.5%

Q: And the residual activity [34]?
A: 90.5%

Q: What about the residual activity [35] of the same molecule?
A: 103%

Q: What about the residual activity [36] of the same molecule?
A: 104%

Q: What about the residual activity [37] of the same molecule?
A: 89.5%

Q: What about the residual activity [38] of the same molecule?
A: 96.6%

Q: And the residual activity [39]?
A: 101%

Q: What about the residual activity [40] of the same molecule?
A: 88%

Q: What about the residual activity [41] of the same molecule?
A: 96.2%

Q: What about the residual activity [42] of the same molecule?
A: 86.4%
